Data: US20010006673A1, “LUTEIN- CONTAINING SUPPLEMENT AND PROCESS FOR ENHANCING IMMUNE RESPONSE IN ANIMALS” (priority 1998, published 2001)

Key:
[1] = tested on: peripheral blood mononuclear cells (PBMC); test: Mitogen-induced lymphocyte proliferation by PBMC, whole blood culture, dogs; type: in vivo, Beagle dogs
Protocol: Blood collected on weeks 0, 2, 4, 8 and 12 were used to assess mitogen-induced lymphocyte proliferation by peripheral blood mononuclear cells (PBMC). Whole blood culture was used in order to mimic in vivo conditions. Mitogens used were phytohemagglutinin (PHA), concanavalin A (Con A) and pokeweed mitogen (PWM). Whole blood was thoroughly mixed and then diluted 1:12 with RPMI-1640 containing 25 mM of Hepes, penicillin (100 U/mL) and streptomycin (100 μg/mL) (Sigma, St. Louis, Mo.). […] Triplicate 150 μL volumes were pipetted into 96-well round bottom plates and 50 μl of the appropriate mitogens added. The final concentrations of the mitogens in culture were 2 and 10 μg/mL for PHA, 1 and 5 μg/mL for Con A and 0.5 and 2.5 μg/mL for PWM. The two mitogen concentrations gave maximum (the higher mitogen concentration) and suboptimal (lower mitogen concentration) proliferative responses in preliminary studies using blood from similar animals. The mixture was incubated for 72 h at 37° C. in a humidified incubator under a 5% CO2 atmosphere. Four hours prior to the termination of the incubation period, 20 μL of [^3H]-thymidine (1 [μCi/well) were added. Cells were harvested onto fiberglass filters and radioactivity was counted by liquid scintillation. Proliferation response of PBMC was expressed as stimulation index (cpm of stimulated cultures/cpm of unstimulated cultures).

IL-2 [2] = test: IL-2 production by PHA-stimulated whole blood cultures, dogs; type: in vivo, Beagle dogs
Protocol: Whole blood was diluted 1:2 with RPMI-1640 supplemented with Hepes and antibiotics (described earlier) and 400 μL of diluted blood were pipetted into 48-well plates (Costar, Cambridge, Mass.). Cells were stimulated with PHA (400 μL of a 5 μg/mL solution) for 48 hours at […] in a 5% CO2 atmosphere. The plates were centrifuged at 200×g for 10 minutes and the supernatant was frozen at −80° C. The IL-2 content of the culture supernatant was determined in triplicate by ELISA (Intergen, Purchase, N.Y.). The polyclonal anti-human IL-2 cross-reacted with canine IL-2 and recombinant human IL-2 was used as the standard.

IgG and IgM = test: Serum IgG and IgM by single radial immunodiffusion, dogs; type: in vivo, Beagle dogs
Protocol: Serum collected on weeks 0, 2, 4, 8 and 12 were analyzed for IgG and IgM concentrations by single radial immunodiffusion (SRID). In addition, all dogs were vaccinated with the polyvalent vaccine (Vanguard 5, Smithkline Beacham, West Chester, Pa.) on week 13 and again on week 15 to study the possible anamnestic effect of dietary lutein. Blood was collected weekly from week 13 through week 17. Goat antiserum to canine IgG (10%, whole molecule) or IgM (7.5%, μ chain specific) (ICN, Aurora, Ohio) was mixed with melted agarose (10 g/L in PBS; Sigma Chem. Co., St. Louis, Mo.) and the mixture solidified in SRID plates.
Duplicate 5 μL volumes of serum or IgG (0, 2.88, 5.75, 11.5 and 23.0 mg/ml) or IgM (0, 0.25, 0.5, 1.0 and 2.0 mg/ml) standard were loaded into the wells. After incubating for 24 hours at room temperature in a humidified chamber, ring diameters were measured using a SRID reader (Transidyne General Corp., Ann Arbor, Mich.).

[3] = tested on: malondialdehyde (MDA) production; test: Lipid peroxidation (TBARS) assay, dog plasma; type: in vivo, Beagle dogs; details: dogs
Protocol: Plasma lipid peroxidation activity was determined by measuring malondialdehyde (MDA) production. The standard used was 1,1,3,3-tetramethoxypropane JMP) (Sigma Chem. Co., St. Louis, Mo.). Duplicate 500 μL plasma samples were pipetted into 15 ml, glass tubes and 3 mL of 10 g/L phosphoric acid and 1 ml of 6 g/L TBA solution were added. The mixture was boiled in a water bath for 45 minutes. Tubes were allowed to cool and the TBA-MDA complex was extracted with 4 ml of n-butanol. The butanol layer was separated by centrifugation at 1,000×g for 10 minutes and absorbance was measured on at 532 nm (Beckman, Fullerton, Calif.). The TBARS activity was expressed in nmole MDA/L plasma.

IL-2 [4] = test: IL-2 production in Con A-stimulated whole blood cultures, cats; type: in vivo, Tabby cats
Protocol: Whole blood was diluted 1:2 in RPMI-1640 complete medium and cultured for 48 hours in the presence of 5 μg/mL Con A. The conditioned medium was removed and frozen at −80° C. The IL-2 concentrations were determined in duplicate by ELISA using a human IL-2 kit (Intergen, Purchase, N.Y). The human anti-IL-2 was previously determined to cross-react with feline IL-2.

IgG = test: Serum IgG by single radial immunodiffusion, cats; type: in vivo, Tabby cats
Protocol: Serum IgG concentration was determined by single radial immunodiffusion (SRID). Goat antiserum to cat IgG (15%, whole molecule) (Sigma, St. Louis, Mo.) was incorporated into agarose (10 g/L in PBS; Sigma, St. Louis, Mo.). The loading volume for the test serum and standard was 5 μL and the plates were incubated for 24 hours in a humidified chamber. Ring diameters were measured using a SRID reader (Transidyne General Corp., Ann Arbor, Mich.).

mouse splenocytes = details: dietary lutein; cited from earlier work
[5] = throughout the experimental period

Compound: CC1=C[C@H](O)CC(C)(C)[C@H]1/C=C/C(C)=C/C=C/C(C)=C/C=C/C=C(C)/C=C/C=C(C)/C=C/C1=C(C)C[C@@H](O)CC1(C)C [lutein]
- Spontaneous proliferation by unstimulated PBMC ([1]; dogs): did not significantly influence
- PWM-stimulated PBMC proliferative response ([1]; dogs fed 10 mg lutein, week 8): higher
- Con A-stimulated PBMC proliferation ([1]; dogs fed 10 mg lutein, weeks 8 and 12, 5 μg/mL Con A): higher
- PHA-stimulated PBMC proliferative response vs unsupplemented ([1]; dogs fed 20 mg lutein, week 8, P<0.01): enhanced
- PWM-stimulated PBMC proliferation vs unsupplemented controls ([1]; dogs fed 20 mg lutein, week 8 and 12, both concentrations of PWM): significantly higher
- PHA-stimulated PBMC proliferative response vs unsupplemented ([1]; dogs fed 20 mg lutein, week 12, 2 and 10 μg/mL PHA, P<0.01): enhanced
- Con A-stimulated PBMC proliferation ([1]; dogs fed 20 mg lutein, weeks 8 and 12, both concentrations of Con A): higher
- PHA-stimulated PBMC proliferation ([1]; dogs fed 5 and 10 mg lutein, week 8, 10 μg/ml PHA): higher
- PHA-stimulated PBMC response ([1]; dogs, weeks 0 and 4): no significant effect
- PWM-stimulated PBMC proliferation ([1]; dogs, weeks 0 and 4): no significant treatment difference
- Production of IL-2 by PHA-stimulated PBMC among dietary treatments (IL-2 [2]; [5]): did not differ significantly
- Concentration of IL-2 in culture medium, average (IL-2 [2]; throughout the study): 15.7 ± 0.4 ng/mL
- Plasma IgG (IgG and IgM; dogs fed 5 mg lutein, week 16, after revaccination on week 15, P<0.05): higher
- Plasma IgG (IgG and IgM; dogs fed 20 mg lutein, week 17, after revaccination on week 15): higher
- Concentration of plasma IgM (IgG and IgM; dogs, after revaccination): not changed
- Effect on plasma TBARS activity [3]: did not significantly affect
- Plasma TBARS activity, average ([3]; across all treatments and periods): 95.8±0.1 nmol MDA/L
- IL-2 production (IL-2 [4]; [5]): no significant differences
- Average concentration of IL-2 in Con A-stimulated cultures (IL-2 [4]; throughout the study): 15.1 ± 0.79 ng/mL
- Plasma IgG vs unsupplemented animals (IgG; cats fed 10 mg lutein, week 12): significantly higher
- Concentrations of plasma IgG (IgG; cats fed 1 or 10 mg lutein, week 8): significantly higher
- Lymphocyte proliferation (mouse splenocytes): enhance
